From ChEMBL document CHEMBL1201862, “PubChem BioAssay data set” (2004)
The source made the active and inactive calls.

How the values were obtained:
[1] = target: Voltage-dependent T-type calcium channel subunit alpha-1H (Homo sapiens, UniProt O95180); experiment: Cav3.2 T-type channel blockers, cell-based, SynthLib3 library, HEK293 Cav3.2, fluorescence (AID 493041); type: functional
[2] = target: Delta-type opioid receptor (Homo sapiens, UniProt P41143); experiment: SAR Analysis of Agonists of the DOR Receptor using an Image-Based Assay - Set 3. [Related pubchem assays (depositor defined):AID1777, AID1786]; type: functional
[3] = target: T1, Kappa-type opioid receptor (Homo sapiens, UniProt P41145); experiment: SAR analysis of small molecule agonists of the kappa opioid receptor via a luminescent beta-arrestin assay - Set 3. [Related pubchem assays (depositor defined):AID1777, AID1785, AID1786, AID1966, AID2133, AID2136, AID2284, AID2500]; type: functional
[4] = target: Mu-type opioid receptor (Homo sapiens, UniProt P35372); experiment: SAR Analysis of Agonists of the MOR Receptor using an Image-Based Assay - Set 3. [Related pubchem assays (depositor defined):AID1777, AID1785, AID1786, AID1966, AID2133, AID2136, AID2284, AID2285, AID2352]; type: functional
[5] = target: T1, Kappa-type opioid receptor; experiment: KOR agonist analogs, arrestin-GFP redistribution, SAR follow-up, imaging, image-based, set 3 (AID 488833); type: functional
[6] = target: T2, Mannose-6-phosphate isomerase (Homo sapiens, UniProt P34949); experiment: PMI enzyme inhibitors, confirmation, biochemical, fluorescence intensity (AID 1535)
T2 sequence (P34949 whole entry): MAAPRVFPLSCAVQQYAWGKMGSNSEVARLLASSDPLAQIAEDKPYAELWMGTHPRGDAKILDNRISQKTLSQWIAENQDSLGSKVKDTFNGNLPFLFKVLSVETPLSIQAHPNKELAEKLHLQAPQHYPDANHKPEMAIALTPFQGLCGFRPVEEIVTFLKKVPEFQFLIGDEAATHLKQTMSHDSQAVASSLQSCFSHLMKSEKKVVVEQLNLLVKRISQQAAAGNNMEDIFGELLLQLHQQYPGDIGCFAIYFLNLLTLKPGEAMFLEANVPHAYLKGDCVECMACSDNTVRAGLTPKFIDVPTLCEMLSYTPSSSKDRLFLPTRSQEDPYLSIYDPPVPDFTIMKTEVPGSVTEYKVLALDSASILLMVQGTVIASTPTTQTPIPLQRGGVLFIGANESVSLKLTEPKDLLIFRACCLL

[7] = target: Phosphomannomutase 2 (Homo sapiens, UniProt O15305); experiment: Counter screen SAR assay for PMM2 inhibitors via a fluorescence intensity assay. [Related pubchem assays (depositor defined):AID1545, AID1574]
[8] = target: Phosphoethanolamine/phosphocholine phosphatase (Homo sapiens, UniProt Q8TCT1); experiment: SAR assay for compounds that inhibit PHOSPHO1. [Related pubchem assays (depositor defined):AID1545, AID1565, AID1574]
Chain of Phosphoethanolamine/phosphocholine phosphatase (Q8TCT1 whole entry): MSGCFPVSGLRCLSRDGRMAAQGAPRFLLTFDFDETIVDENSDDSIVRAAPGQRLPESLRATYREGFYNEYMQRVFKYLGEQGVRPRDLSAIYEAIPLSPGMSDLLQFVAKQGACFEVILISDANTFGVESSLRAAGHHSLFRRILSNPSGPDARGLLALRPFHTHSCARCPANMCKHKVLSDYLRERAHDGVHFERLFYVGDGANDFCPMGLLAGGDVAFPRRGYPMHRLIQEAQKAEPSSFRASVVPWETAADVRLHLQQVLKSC

T1 sequence (P41145 whole entry): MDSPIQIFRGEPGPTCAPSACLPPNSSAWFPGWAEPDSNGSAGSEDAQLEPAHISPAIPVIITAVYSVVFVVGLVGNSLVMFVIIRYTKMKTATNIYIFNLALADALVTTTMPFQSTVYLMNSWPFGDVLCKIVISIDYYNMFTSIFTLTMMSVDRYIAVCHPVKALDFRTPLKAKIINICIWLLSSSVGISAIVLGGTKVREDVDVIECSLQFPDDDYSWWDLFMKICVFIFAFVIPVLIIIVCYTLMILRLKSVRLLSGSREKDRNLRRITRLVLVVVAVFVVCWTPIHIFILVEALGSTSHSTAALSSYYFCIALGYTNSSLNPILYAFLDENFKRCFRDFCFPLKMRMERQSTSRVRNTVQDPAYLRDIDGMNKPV
Chain of Phosphomannomutase 2 (O15305 whole entry): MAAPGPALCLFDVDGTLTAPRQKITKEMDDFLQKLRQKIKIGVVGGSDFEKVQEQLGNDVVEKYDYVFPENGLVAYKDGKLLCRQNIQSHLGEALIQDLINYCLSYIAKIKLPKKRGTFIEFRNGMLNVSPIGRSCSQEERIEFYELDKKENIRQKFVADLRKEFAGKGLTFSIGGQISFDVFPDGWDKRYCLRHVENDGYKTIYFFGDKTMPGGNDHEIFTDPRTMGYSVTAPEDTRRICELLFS
Chain of Mu-type opioid receptor (P35372 whole entry): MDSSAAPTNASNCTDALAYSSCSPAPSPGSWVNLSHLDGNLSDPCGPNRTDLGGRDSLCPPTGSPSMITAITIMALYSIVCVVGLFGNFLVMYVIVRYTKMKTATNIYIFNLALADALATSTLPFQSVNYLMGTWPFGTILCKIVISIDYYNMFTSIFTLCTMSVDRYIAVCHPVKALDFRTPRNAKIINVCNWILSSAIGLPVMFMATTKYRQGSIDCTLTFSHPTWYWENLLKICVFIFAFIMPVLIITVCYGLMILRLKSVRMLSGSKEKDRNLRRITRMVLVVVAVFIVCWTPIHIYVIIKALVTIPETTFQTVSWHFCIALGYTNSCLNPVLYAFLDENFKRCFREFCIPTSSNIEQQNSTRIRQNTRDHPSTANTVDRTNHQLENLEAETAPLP
Chain of Voltage-dependent T-type calcium channel subunit alpha-1H (O95180 whole entry): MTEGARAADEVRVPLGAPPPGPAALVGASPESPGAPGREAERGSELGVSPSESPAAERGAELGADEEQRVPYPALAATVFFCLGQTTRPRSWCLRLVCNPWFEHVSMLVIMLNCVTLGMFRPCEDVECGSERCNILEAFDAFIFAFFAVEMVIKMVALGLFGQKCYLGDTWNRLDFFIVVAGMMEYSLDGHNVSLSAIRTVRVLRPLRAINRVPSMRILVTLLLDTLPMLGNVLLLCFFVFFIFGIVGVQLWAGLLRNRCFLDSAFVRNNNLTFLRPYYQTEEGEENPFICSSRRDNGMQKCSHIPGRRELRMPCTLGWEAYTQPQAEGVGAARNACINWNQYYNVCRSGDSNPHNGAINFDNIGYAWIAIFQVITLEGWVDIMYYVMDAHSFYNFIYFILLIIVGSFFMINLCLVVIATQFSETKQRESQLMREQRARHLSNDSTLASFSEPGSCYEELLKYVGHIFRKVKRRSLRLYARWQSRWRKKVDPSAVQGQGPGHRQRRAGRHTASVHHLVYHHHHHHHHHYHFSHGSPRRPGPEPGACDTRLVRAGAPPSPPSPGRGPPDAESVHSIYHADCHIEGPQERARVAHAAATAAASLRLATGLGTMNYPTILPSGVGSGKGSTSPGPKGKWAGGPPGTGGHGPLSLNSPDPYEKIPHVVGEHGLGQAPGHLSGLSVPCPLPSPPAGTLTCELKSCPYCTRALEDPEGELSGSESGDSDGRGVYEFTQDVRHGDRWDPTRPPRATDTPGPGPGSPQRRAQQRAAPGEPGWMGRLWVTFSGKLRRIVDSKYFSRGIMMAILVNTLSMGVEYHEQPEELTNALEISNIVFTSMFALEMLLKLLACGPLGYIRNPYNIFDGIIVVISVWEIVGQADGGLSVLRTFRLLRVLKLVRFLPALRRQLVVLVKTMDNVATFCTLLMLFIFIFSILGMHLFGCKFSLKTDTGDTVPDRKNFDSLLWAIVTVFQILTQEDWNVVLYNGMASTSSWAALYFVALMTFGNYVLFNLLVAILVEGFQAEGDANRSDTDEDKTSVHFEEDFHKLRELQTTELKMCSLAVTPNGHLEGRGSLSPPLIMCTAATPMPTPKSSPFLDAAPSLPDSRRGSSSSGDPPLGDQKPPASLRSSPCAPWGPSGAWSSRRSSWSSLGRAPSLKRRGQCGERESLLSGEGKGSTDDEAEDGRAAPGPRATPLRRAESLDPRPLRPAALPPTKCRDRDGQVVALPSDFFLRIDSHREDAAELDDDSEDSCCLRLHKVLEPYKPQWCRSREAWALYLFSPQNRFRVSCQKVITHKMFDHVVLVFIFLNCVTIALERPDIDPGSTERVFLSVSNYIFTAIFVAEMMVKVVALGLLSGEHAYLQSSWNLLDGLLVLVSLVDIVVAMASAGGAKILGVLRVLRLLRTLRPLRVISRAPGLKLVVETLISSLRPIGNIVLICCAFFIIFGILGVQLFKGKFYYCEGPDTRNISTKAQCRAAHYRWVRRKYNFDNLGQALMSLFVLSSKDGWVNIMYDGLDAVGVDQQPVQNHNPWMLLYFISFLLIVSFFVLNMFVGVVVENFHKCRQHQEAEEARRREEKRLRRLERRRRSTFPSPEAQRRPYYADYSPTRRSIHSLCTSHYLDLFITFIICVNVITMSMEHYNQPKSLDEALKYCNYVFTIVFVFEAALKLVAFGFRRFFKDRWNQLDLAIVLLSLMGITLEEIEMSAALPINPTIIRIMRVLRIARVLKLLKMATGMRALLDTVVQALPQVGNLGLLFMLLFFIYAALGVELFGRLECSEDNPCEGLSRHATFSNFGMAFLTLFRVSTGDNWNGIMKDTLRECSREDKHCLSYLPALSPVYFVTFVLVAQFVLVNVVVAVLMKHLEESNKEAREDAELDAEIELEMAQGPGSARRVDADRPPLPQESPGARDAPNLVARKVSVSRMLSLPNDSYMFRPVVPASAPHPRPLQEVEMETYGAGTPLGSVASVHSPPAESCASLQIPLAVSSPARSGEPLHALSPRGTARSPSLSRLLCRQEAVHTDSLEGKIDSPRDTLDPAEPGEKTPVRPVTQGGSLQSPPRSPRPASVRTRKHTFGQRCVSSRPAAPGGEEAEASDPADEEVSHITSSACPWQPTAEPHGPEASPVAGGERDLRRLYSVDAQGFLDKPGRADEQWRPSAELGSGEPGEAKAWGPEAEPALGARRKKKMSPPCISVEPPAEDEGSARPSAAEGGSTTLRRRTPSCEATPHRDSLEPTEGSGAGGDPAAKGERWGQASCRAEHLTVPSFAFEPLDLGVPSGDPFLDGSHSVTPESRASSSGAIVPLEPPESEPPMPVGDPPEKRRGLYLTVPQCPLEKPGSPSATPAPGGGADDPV
Chain of Delta-type opioid receptor (P41143 whole entry): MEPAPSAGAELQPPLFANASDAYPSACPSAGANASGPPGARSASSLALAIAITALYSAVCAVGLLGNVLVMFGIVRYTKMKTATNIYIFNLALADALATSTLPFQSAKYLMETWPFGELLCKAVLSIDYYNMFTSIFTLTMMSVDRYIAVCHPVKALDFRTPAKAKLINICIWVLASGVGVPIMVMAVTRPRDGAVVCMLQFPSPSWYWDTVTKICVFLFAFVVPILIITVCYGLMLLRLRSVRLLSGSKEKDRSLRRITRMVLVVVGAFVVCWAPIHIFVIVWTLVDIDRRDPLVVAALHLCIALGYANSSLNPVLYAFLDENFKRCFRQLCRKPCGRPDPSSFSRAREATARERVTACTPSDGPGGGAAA

For `CCC(CC)CN1CCC[C@H](NC(=O)COc2ccc(F)c(Cl)c2)C1`, the EC50 [1] was 10 µM (active).
With `COC(=O)c1ccc(CSc2nnc(-c3ccccn3)n2Cc2ccco2)cc1` the EC50 [2] was > 64 µM (inactive), the EC50 [3] was 6.62 µM (active) and the EC50 [4] was > 32 µM (inactive). The EC50 [5] was 18.7 µM (inactive).
In the case of `CCN(CC)CCOC(=O)c1ccc(-n2sc3ccccc3c2=O)cc1`, the IC50 [6] is reported as 24.1 µM (active), the IC50 [7] is reported as 26.9 µM (active) and the IC50 [8] is reported as 0.755 µM (active).
